Data reported in patent US20230147257A1 (DONG-A ST CO., LTD., priority 2020, published 2023).
Like-named read-outs stand apart in the source and are kept apart here.

What was measured:
AhR [1] = biological target: T1, AhR (Homo sapiens, UniProt P35869); assay: In vitro assay 1: XRE-luciferase reporter assay, antagonism in human cell line (HepG2); assay type: cell-based; details: HepG2 XRE-luciferase, 6 hours, read-out: Assay 1: AhR-Luc Human Antagonism (IC50)
T1 construct: host or cells: HepG2
T1 sequence (P35869 11-848): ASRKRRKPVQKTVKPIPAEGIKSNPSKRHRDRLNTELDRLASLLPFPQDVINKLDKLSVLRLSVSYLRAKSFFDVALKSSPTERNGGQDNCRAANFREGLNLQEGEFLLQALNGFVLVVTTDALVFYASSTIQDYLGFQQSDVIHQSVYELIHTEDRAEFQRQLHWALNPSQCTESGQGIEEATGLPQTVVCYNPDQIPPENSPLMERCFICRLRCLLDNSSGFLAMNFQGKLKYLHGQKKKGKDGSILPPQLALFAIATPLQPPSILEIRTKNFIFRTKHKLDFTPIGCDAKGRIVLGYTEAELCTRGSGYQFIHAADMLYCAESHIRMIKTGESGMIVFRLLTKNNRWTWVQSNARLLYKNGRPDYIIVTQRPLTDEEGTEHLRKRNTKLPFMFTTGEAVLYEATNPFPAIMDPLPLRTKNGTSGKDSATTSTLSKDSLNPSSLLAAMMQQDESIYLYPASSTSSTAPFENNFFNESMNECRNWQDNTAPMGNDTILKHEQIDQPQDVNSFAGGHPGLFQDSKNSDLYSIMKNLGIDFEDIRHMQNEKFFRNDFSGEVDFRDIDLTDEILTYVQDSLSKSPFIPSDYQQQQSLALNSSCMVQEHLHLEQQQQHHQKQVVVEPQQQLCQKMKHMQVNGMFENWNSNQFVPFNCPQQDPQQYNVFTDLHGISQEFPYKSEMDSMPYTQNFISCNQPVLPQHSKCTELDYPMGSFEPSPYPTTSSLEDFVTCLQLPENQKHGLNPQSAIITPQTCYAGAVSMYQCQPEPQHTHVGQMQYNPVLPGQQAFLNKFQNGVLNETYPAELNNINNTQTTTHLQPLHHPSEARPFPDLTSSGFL
Method in brief: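 HepG2 cells carrying XRE-firefly luciferase (transient or stable) plus constitutive Nano-Luc control, stimulated 6 h with kynurenine (50 or 200 μM) with or without compound. Firefly/Nano-Luc ratio normalized to kynurenine-alone (maximum) and vehicle (minimum); IC50 by four-parameter nonlinear regression.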

AhR [2] = biological target: T1, AhR; assay: In vitro assay 3: XRE-luciferase reporter assay, agonism in human cell line (HepG2); assay type: cell-based; details: HepG2 XRE-Luc, tryptophan free medium, test compound alone, 6 hours
Excerpt: In Vitro XRE-Luciferase Reporter Assay (In Vitro Assay 1, 2, 3)
AhR activation leads the induction of target gene expression such as CYP1A1 and CYP1B1 by AhR binding to AhR-responsive DNA elements also known as xenobiotics responsive elements (XRE). The assay for measuring AhR activity herein is the luciferase assay using cell lines transfected with luciferase reporter plasmid containing XREs at the upstream of the reporter gene. Cells transfected with XRE-luciferase reporter (XRE-Luc) plasmid drive luciferase activity reflecting activation and inhibition of AhR in the cells. In addition to transfection with XRE-reporter vector, cells were co-transfected with Nano-luciferase reporter gene construct (Nano-Luc) containing constitutively active promoter as internal control. Kynurenine (an endogenous AhR agonist) was used to stimulate cells to test antagonistic properties of the compounds. The half-maximal inhibitory concentration (IC50) or half-maximal effective concentration (EC50) value was calculated using nonlinear regression (four parameters) with Prism8.0 software (GraphPad).
In Vitro Assay 3: Agonism in Human Cell Line
HepG2 (human hepatoma cell line) cells co-transfected with XRE-Luc and Nano-Luc plasmids were plated in tryptophan free medium containing 1% of dialyzed fetal bovine serum and incubated overnight at 37° C. in a CO2 incubator. After 24 hours, cells were treated for 6 hours with test compounds or not. Firefly luciferase and Nano-luciferase activity was measured using Nano-glo Luciferase kit (Promega) and relative luciferase activity (Firefly/Nano-Luc) was used to calculate EC50 values. As a positive control, cells were incubated with TCDD. (EC50 Values are grouped as A, B, C and D, whereby A: EC50<0.1 μM; B: 0.1<EC50<1.0 μM; C: 1.0<EC50<10 μM; D: EC50>10 μM)

[3] = cells treated with kynurenine 200 μM (no *)
[4] = read-out: Assay 3: AhR-Luc Human Agonism (EC50)
[5] = read-out: Assay 3: AhR-Luc Human Agonism (EC50, nM), class in brackets
[6] = cells treated with kynurenine 50 μM (*)

IC50 (AhR [1]; [3])	EC50 (AhR [2]; [4])	EC50 (AhR [2]; [5])	IC50 (AhR [1]; [6])	Structure (SMILES)
< 10 nM	> 30000 nM	> 10000 nM	–	CS(=O)(=O)CCn1cnc2c(-c3cccnc3)nc(-c3ccc(C(F)(F)F)cc3)cc2c1=O [Example 76, 3-(2-(methylsulfonyl)ethyl)-8-(pyridin-3-yl)-6-(4-(trifluoromethyl)phenyl)pyrido[3,4-d]pyrimidin-4(3H)-one]
< 10 nM	> 30000 nM	> 10000 nM	–	CS(=O)(=O)CCn1cnc2c(-c3cccnc3)nc(-c3ccc(Cl)cc3)cc2c1=O [Example 77, 6-(4-chlorophenyl)-3-(2-(methylsulfonyl)ethyl)-8-(pyridin-3-yl)pyrido[3,4-d]pyrimidin-4(3H)-one]
–	1370 nM	–	< 10 nM	CCC(CO)n1cnc2c(-c3cccc(F)c3)nc(-c3ccc(Cl)cc3)cc2c1=O (stereo not shown) [Example 55, 6-(4-chlorophenyl)-8-(3-fluorophenyl)-3-(1-hydroxybutan-2-yl)pyrido[3,4-d]pyrimidin-4(3H)-one]
–	2050 nM	–	< 10 nM	CC(CO)n1cnc2c(-c3cccnc3)nc(-c3ccc(C(F)(F)F)nc3)cc2c1=O (stereo not shown) [Example 50, 3-(1-hydroxypropan-2-yl)-8-(pyridin-3-yl)-6-(6-(trifluoromethyl)pyridin-3-yl)pyrido[3,4-d]pyrimidin-4(3H)-one]
–	290 nM	–	< 10 nM	CCC(CO)n1cnc2c(-c3cnn(C)c3)nc(-c3ccc(Cl)cc3)cc2c1=O (stereo not shown) [Example 52, 6-(4-chlorophenyl)-3-(1-hydroxybutan-2-yl)-8-(1-methyl-1H-pyrazol-4-yl)pyrido[3,4-d]pyrimidin-4(3H)-one]
10 to 100 nM	> 30000 nM	> 10000 nM	–	O=c1c2cc(-c3ccc(Cl)nc3)nc(-c3cccnc3)c2ncn1[C@@H]1CC[C@H](O)C1 [Example 71, 6-(6-chloropyridin-3-yl)-3-((1R,3S)-3-hydroxycyclopentyl)-8-(pyridin-3-yl)pyrido[3,4-d]pyrimidin-4(3H)-one]
< 10 nM	> 30000 nM	> 10000 nM	–	O=c1c2cc(-c3ccc(N4CCOCC4)cc3)nc(-c3cccnc3)c2ncn1CC(O)CO (stereo not shown) [Example 82, 3-(2,3-dihydroxypropyl)-6-(4-morpholinophenyl)-8-(pyridin-3-yl)pyrido[3,4-d]pyrimidin-4(3H)-one]
–	> 30000 nM	> 10000 nM	< 10 nM	Cn1cc(-c2nc(-c3ccc(C(F)(F)F)cc3)cc3c(=O)n([C@H]4CC[C@H](O)CC4)cnc23)cn1 [Example 8, 3-((1r,4r)-4-hydroxycyclohexyl)-8-(1-methyl-1H-pyrazol-4-yl)-6-(4-(trifluoromethyl)phenyl)pyrido[3,4-d]pyrimidin-4(3H)-one]
–	> 30000 nM	> 10000 nM	< 10 nM	CC(O)Cn1cnc2c(-c3cnn(C)c3)nc(-c3ccc(C(F)(F)F)nc3)cc2c1=O (stereo not shown) [Example 14, 3-(2-hydroxypropyl)-8-(1-methyl-1H-pyrazol-4-yl)-6-(6-(trifluoromethyl)pyridin-3-yl)pyrido[3,4-d]pyrimidin-4(3H)-one]
–	> 30000 nM	> 10000 nM	< 10 nM	CC(CO)n1cnc2c(-c3cccnc3)nc(-c3ccc(C(F)(F)F)cc3)cc2c1=O (stereo not shown) [Example 44, 3-(1-hydroxypropan-2-yl)-8-(pyridin-3-yl)-6-(4-(trifluoromethyl)phenyl)pyrido[3,4-d]pyrimidin-4(3H)-one]
–	> 30000 nM	> 10000 nM	< 10 nM	Cn1cc(-c2nc(-c3ccc(C(F)(F)F)cc3)cc3c(=O)n(C4CCCC(O)C4)cnc23)cn1 (stereo not shown) [Example 1, 3-(3-hydroxycyclohexyl)-8-(1-methyl-1H-pyrazol-4-yl)-6-(4-(trifluoromethyl)phenyl)pyrido[3,4-d]pyrimidin-4(3H)-one]
< 10 nM	> 30000 nM	> 10000 nM	–	O=c1c2cc(-c3ccc(Cl)cc3)nc(-c3cccnc3)c2ncn1C1CCN(S(=O)(=O)C2CC2)CC1 [Example 95, 6-(4-chlorophenyl)-3-(1-(cyclopropylsulfonyl)piperidin-4-yl)-8-(pyridin-3-yl)pyrido[3,4-d]pyrimidin-4(3H)-one]
–	> 30000 nM	> 10000 nM	< 10 nM	CC(CO)N1CNc2c(cc(-c3ccc(C(F)(F)F)cc3)nc2-c2cnn(C)c2)C1=O (stereo not shown) [Example 59, 3-(1-hydroxypropan-2-yl)-8-(1-methyl-1H-pyrazol-4-yl)-6-(4-(trifluoromethyl)phenyl)-2,3-dihydropyrido[3,4-d]pyrimidin-4(1H)-one]
< 10 nM	> 30000 nM	> 10000 nM	–	O=c1c2cc(-c3ccc(Cl)cc3)nc(-c3cccnc3)c2ncn1CC(O)CO (stereo not shown) [Example 67, 6-(4-chlorophenyl)-3-(2,3-dihydroxypropyl)-8-(pyridin-3-yl)pyrido[3,4-d]pyrimidin-4(3H)-one]
–	> 30000 nM	> 10000 nM	> 1000 nM	CC(CO)n1cnc2c(-c3cnn(C)c3)nc(-c3cnn(C)c3)cc2c1=O (stereo not shown) [Example 3, 3-(1-hydroxypropan-2-yl)-6,8-bis(1-methyl-1H-pyrazol-4-yl)pyrido[3,4-d]pyrimidin-4(3H)-one]
< 10 nM	> 30000 nM	> 10000 nM	–	CS(=O)(=O)N1CCC(n2cnc3c(-c4cccnc4)nc(-c4ccc(Cl)cc4)cc3c2=O)CC1 [Example 94, 6-(4-chlorophenyl)-3-(1-(methylsulfonyl)piperidin-4-yl)-8-(pyridin-3-yl)pyrido[3,4-d]pyrimidin-4(3H)-one]
< 10 nM	> 30000 nM	> 10000 nM	–	CC(CNS(C)(=O)=O)n1cnc2c(-c3cccnc3)nc(-c3ccc(Cl)cc3)cc2c1=O (stereo not shown) [Example 89, N-(2-(6-(4-chlorophenyl)-4-oxo-8-(pyridin-3-yl)pyrido[3,4-d]pyrimidin-3(4H)-yl)propyl)methanesulfonamide]
–	> 30000 nM	> 10000 nM	< 10 nM	Cn1cc(-c2nc(-c3ccc(Cl)cc3)cc3c(=O)n([C@H]4CC[C@H](O)CC4)cnc23)cn1 [Example 10, 6-(4-chlorophenyl)-3-((1r,4r)-4-hydroxycyclohexyl)-8-(1-methyl-1H-pyrazol-4-yl)pyrido[3,4-d]pyrimidin-4(3H)-one]
–	9660 nM	–	< 10 nM	CC(CO)n1cnc2c(-c3cccnc3)nc(-c3ccc(OC(F)(F)F)cc3)cc2c1=O (stereo not shown) [Example 49, 3-(1-hydroxypropan-2-yl)-8-(pyridin-3-yl)-6-(4-(trifluoromethoxy)phenyl)pyrido[3,4-d]pyrimidin-4(3H)-one]
–	4480 nM	–	< 10 nM	O=c1c2cc(-c3ccc(C(F)(F)F)cc3)nc(-c3cccnc3)c2ncn1[C@H]1CC[C@H](O)CC1 [Example 57, 3-((1r,4r)-4-hydroxycyclohexyl)-8-(pyridin-3-yl)-6-(4-(trifluoromethyl)phenyl)pyrido[3,4-d]pyrimidin-4(3H)-one]
–	> 30000 nM	> 10000 nM	< 10 nM	CC(CO)n1cnc2c(-c3cnn(C)c3)nc(-c3ccc(Cl)cc3)cc2c1=O (stereo not shown) [Example 48, 6-(4-chlorophenyl)-3-(1-hydroxypropan-2-yl)-8-(1-methyl-1H-pyrazol-4-yl)pyrido[3,4-d]pyrimidin-4(3H)-one]
